# Laboratory results reported in patent US9050301B2, “Pharmaceutical composition for treatment of corneal endothelial wounds containing angiogenin” (Chung-Ang University Industry-Academy Cooperation Foundation, priority 2013, dated 2015).
# What was measured:
# Format in all cases: cell-based, human
# Settings in all cases: angiogenin 5 μg/ml
# [1] = test system: Akt; test: Western blot of angiogenin lower pathway, Akt
# Method: (§1) The culture medium containing 5 μg/ml of angiogenin was treated with the cultured human corneal endothelial cells for 5 minutes, 10 minutes, 30 minutes, 1 hour, and 3 hours. Afterwards, according to the treatment times, expression aspects of Akt, eNOS, and Erk1/2 genes targeting the lower pathway of angiogenin were analyzed. First, a PRO-PREP™ protein extracting solution (Intron Biotechnology, Seongnam, Korea) was used to separate the total proteins from the corneal endothelial cells. The total proteins (30 μg/sample) were heat-treated at a temperature of about 100° C. for 5 minutes, and then, 10% sodiumdodecyl sulfate polyacrylamide (SDS-PAGE) gel was used to perform electrophoresis. The proteins separated according to molecular weights thereof were transferred to a polyvinylidene fluoride (PVDF) membrane, followed by being blocked by 5% BSA dissolved in 1× tris-buffered saline (TBS) at room temperature for 1 hour. […] The ECL western blotting detection reagent (Amersham Bioscience, Piscataway, USA) was used in terms of luminescence, and then, images were detected by using the same reagent for ChemiDoc™ XRS system (Bio-Rad, Hercules, USA).
# [2] = test system: eNOS; test: Western blot of angiogenin lower pathway, eNOS
# Method: as §1
# [3] = test system: Erk1/2; test: Western blot of angiogenin lower pathway, Erk1/2
# Method: as §1
substance,measurement,setting,value
"Angiogenin: 14.4-kDa single chain protein of 123 amino acids, secreted protein capable of inducing angiogenesis",Time of maximal p-Akt expression after angiogenin treatment,[1],10 min
same,Relative expression of phosphate (p-form/t-form) of Akt compared with the control group,[1]; 5 minutes to 3 hours,increased extent of relative expression of phosphate (p-form/t-form)
same,Time of maximal p-eNOS expression after angiogenin treatment,[2],3 h
same,Relative expression of phosphate (p-form/t-form) of eNOS compared with the control group,[2]; 5 minutes to 3 hours,increased extent of relative expression of phosphate (p-form/t-form)
same,Time of maximal p-Erk1/2 expression after angiogenin treatment,[3],30 min
same,Relative expression of phosphate (p-form/t-form) of Erk1/2 compared with the control group,[3]; 5 minutes to 3 hours,increased extent of relative expression of phosphate (p-form/t-form)
